The test system of the assay is Endogenous Huntingtin Protein. Description: Endogenous Huntingtin Protein Assay (ELISA-based MSD electrochemiluminescence). It counts as cell-based. As to conditions: Table 1. On the procedure:
Compounds of Formula (I) or Formula (II) were tested using the Meso Scale Discovery (MSD) Assay provided in International Application No. PCT/US2016/066042, filed on Dec. 11, 2016 and claiming priority to U.S. Provisional Application 62/265,652 filed on Dec. 10, 2015, the entire contents of which are incorporated herein by reference.
The Endogenous Huntingtin Protein assay used in Example 1 was developed using the ELISA-based MSD electrochemiluminescence assay platform.
Endogenous Huntingtin Protein Assay
Meso Scale Discovery (MSD) 96-well or 384-well plates were coated overnight at 4° C. with MW1 (expanded polyglutamine) or MAB2166 monoclonal antibody (for capture) at a concentration of 1 μg/mL in PBS (30 μL per well). Plates were then washed three times with 300 μL wash buffer (0.05% Tween-20 in PBS) and blocked (100 μL blocking buffer; 5% BSA in PBS) for 4-5 hours at room temperature with rotational shaking and then washed three times with wash buffer.
Samples (25 μL) were transferred to the antibody-coated MSD plate and incubated overnight at 4° C. After removal of the lysates, the plate was washed three times with wash buffer, and 25 μL of #5656S (Cell signaling; rabbit monoclonal) secondary antibody (diluted to 0.25 μg/mL in 0.05% Tween-20 in blocking buffer) was added to each well and incubated with shaking for 1 Hour at room temperature. Following incubation with the secondary antibody, the wells were rinsed with wash buffer after which 25 μL of goat anti-rabbit SULFO TAG secondary detection antibody (required aspect of the MSD system) (diluted to 0.25 μg/mL in 0.05% Tween-20 in blocking buffer) was added to each well and incubated with shaking for 1 hour at room temperature. After rinsing three times with wash buffer, 150 μL of read buffer T with surfactant (MSD) were added to each empty well, and the plate was imaged on a SI 6000 imager (MSD) according to manufacturers' instructions provided for 96- or 384-well plates.
Background: ELISA stands for enzyme-linked immunosorbent assay.
In general, IC50 refers to the concentration needed to halve the response being measured. In the case of `CN1CCC2(CC1)CCN2c1nc2nnc(-c3ccc(-c4cn[nH]c4)cc3O)cc2s1` [Compound 339, 2-[6-(7-methyl-1,7-diazaspiro[3.5]nonan-1-yl)[1,3]thiazolo[4,5-c]pyridazin-3-yl]-5-(1H-pyrazol-4-yl)phenol], the IC50 was at most 100 nM.

On to `Cn1cc2cc(-c3cc(F)c4nc(OC5CCNCC5)sc4c3)cc(C#N)c2n1` [Compound 318, 5-{4-fluoro-2-[(piperidin-4-yl)oxy]-1,3-benzothiazol-6-yl}-2-methyl-2H-indazole-7-carbonitrile], for which the IC50 is at most 100 nM.

With `Cc1cn2cc(-c3cc4sc(N(C)C5CC6CCC(C5)N6)nc4cn3)cc(F)c2n1` (stereo not drawn) [Compound 204, N-[(3-exo)-8-azabicyclo[3.2.1]oct-3-yl]-6-(8-fluoro-2-methylimidazo[1,2-a]pyridin-6-yl)-N-methyl[1,3]thiazolo[4,5-c]pyridin-2-amine], the IC50 was at most 100 nM.

`CN(c1nc2cnc(-c3cc(C#N)c4nn(C)cc4c3)nc2s1)C1CC2CCC(C1)N2` (stereo not drawn) [Compound 208, 5-{2-[(3-exo)-8-azabicyclo[3.2.1]oct-3-yl(methyl)amino][1,3]thiazolo[5,4-d]pyrimidin-5-yl}-2-methyl-2H-indazole-7-carbonitrile] had an IC50 of at most 100 nM.

For the compound `CN(c1nc2nnc(-c3ccc(-c4cn[nH]c4)cc3O)cc2s1)C1CCN(CCF)CC1` [Compound 384, 2-(6-{[1-(2-fluoroethyl)piperidin-4-yl](methyl)amino}[1,3]thiazolo[4,5-c]pyridazin-3-yl)-5-(1H-pyrazol-4-yl)phenol], the IC50 is at most 100 nM.

Compound `Cn1cc2cc(-c3cc(C#N)c4nc(C5=CCNCC5)sc4c3)cc(C#N)c2n1` [Compound 172, 6-(7-cyano-2-methyl-2H-indazol-5-yl)-2-(1,2,3,6-tetrahydropyridin-4-yl)-1,3-benzothiazole-4-carbonitrile] registered an IC50 of 1000 to 3000 nM.

The compound `Cc1cn2cc(-c3cc(F)c4nc(OC5CCNCC5)sc4c3)cc(C#N)c2n1` [Compound 317, 6-{4-fluoro-2-[(piperidin-4-yl)oxy]-1,3-benzothiazol-6-yl}-2-methylimidazo[1,2-a]pyridine-8-carbonitrile] had an IC50 of at most 100 nM.

In the case of `Cc1cn2nc(-c3cc(F)c4nc(C5CCNCC5)sc4c3)cc(CC(=O)O)c2n1` [Compound 221, {6-[4-fluoro-2-(piperidin-4-yl)-1,3-benzothiazol-6-yl]-2-methylimidazo[1,2-b]pyridazin-8-yl]acetic acid], the IC50 was at most 100 nM.

Compound `CN(c1nc2cnc(-c3ccc(-c4cn[nH]c4)cc3O)cc2s1)C1CC(C)(C)NC(C)(C)C1` [Compound 137, 2-{2-[methyl(2,2,6,6-tetramethylpiperidin-4-yl)amino][1,3]thiazolo[4,5-c]pyridin-6-yl}-5-(1H-pyrazol-4-yl)phenol] showed an IC50 of 3000 to 9000 nM.

Consider `Oc1cc(-c2cn[nH]c2)ccc1-c1cc2sc(NC3CCNC3)nc2nn1` (centres unmarked) [Compound 367, 5-(1H-pyrazol-4-yl)-2-{6-[(pyrrolidin-3-yl)amino][1,3]thiazolo[4,5-c]pyridazin-3-yl}phenol], for which the IC50 was 100 to 500 nM.

`CN(c1nc2cnc(-c3cc(C#N)c4nn(C)cc4c3)cc2s1)C1CCNCC1` [Compound 214, 2-methyl-5-{2-[methyl(piperidin-4-yl)amino][1,3]thiazolo[4,5-c]pyridin-6-yl}-2H-indazole-7-carbonitrile] registered an IC50 of at most 100 nM.

`CN(c1nc2nnc(-c3ccc(-c4c[nH]nc4F)cc3O)cc2s1)C1CCNC1` (centres unmarked) [Compound 387, 5-(3-fluoro-1H-pyrazol-4-yl)-2-[6-[methyl(pyrrolidin-3-yl)amino][1,3]thiazolo[4,5-c]pyridazin-3-yl}phenol] displayed an IC50 of at most 100 nM.

With `Cc1cn2cc(-c3ccc4nc(N(C)C5CC6CCC(C5)N6)sc4n3)cc(F)c2n1` (stereo not drawn) [Compound 277, N-[(3-exo)-8-azabicyclo[3.2.1]oct-3-yl]-5-(8-fluoro-2-methylimidazo[1,2-a]pyridin-6-yl)-N-methyl[1,3]thiazolo[5,4-b]pyridin-2-amine], the IC50 was in the range of 100 to 500 nM.

The compound `Cc1cc(-c2ccc3nc(N(C)C4CC(C)(C)NC(C)(C)C4)sc3c2)cc2cn(C)nc12` [Compound 21, 6-(2,7-dimethyl-2H-indazol-5-yl)-N-methyl-N-(2,2,6,6-tetramethylpiperidin-4-yl)-1,3-benzothiazol-2-amine] showed an IC50 of 100 to 500 nM.

Regarding `CNc1cc(-c2cc(F)c3nc(C4CCNCC4)sc3c2)nn2cc(C)nc12` [Compound 167, 6-[4-fluoro-2-(piperidin-4-yl)-1,3-benzothiazol-6-yl]-N,2-dimethylimidazo[1,2-b]pyridazin-8-amine], the IC50 was at most 100 nM.

Take `Cc1cc(-c2cnc3nc(NC4CCNCC4)sc3c2)cc2cn(C)nc12` [Compound 14, 6-(2,7-dimethyl-2H-indazol-5-yl)-N-(piperidin-4-yl)[1,3]thiazolo[4,5-b]pyridin-2-amine]: the IC50 lay within 1000 to 3000 nM.

Consider `CN1CCC(N(C)c2nc3nnc(-c4ccc(-c5c[nH]nc5F)cc4O)cc3s2)C1` (centres unmarked) [Compound 391, 5-(3-fluoro-1H-pyrazol-4-yl)-2-{6-[methyl(1-methylpyrrolidin-3-yl)amino][1,3]thiazolo[4,5-c]pyridazin-3-yl]phenol], for which the IC50 is at most 100 nM.

For `CN(c1nc2cnc(-c3cc(C#N)c4nn(C)cc4c3)cc2s1)C1CC(C)(C)NC(C)(C)C1` [Compound 117, 2-methyl-5-{2-[methyl(2,2,6,6-tetramethylpiperidin-4-yl)amino][1,3]thiazolo[4,5-c]pyridin-6-yl}-2H-indazole-7-carbonitrile], the IC50 was at most 100 nM.

In the case of `Cc1cn2nc(-c3cnc4nc(C5CCNCC5)sc4c3)cc(C)c2n1` [Compound 61, 6-(2,8-dimethylimidazo[1,2-b]pyridazin-6-yl)-2-(piperidin-4-yl)[1,3]thiazolo[4,5-b]pyridine], the IC50 was at most 100 nM.

The compound `CN(c1nc2ncc(-c3cc(C#N)c4nn(C)cc4c3)nc2s1)C1CC(C)(C)NC(C)(C)C1` [Compound 140, 2-methyl-5-{2-[methyl(2,2,6,6-tetramethylpiperidin-4-yl)amino][1,3]thiazolo[4,5-b]pyrazin-6-yl)-2H-indazole-7-carbonitrile] showed an IC50 of at most 100 nM.

On to `CN(c1nc2nnc(-c3cc(C#N)c4nn(C)cc4c3)cc2s1)C1CC(C)(C)NC(C)(C)C1` [Compound 158, 2-methyl-5-{6-[methyl(2,2,6,6-tetramethylpiperidin-4-yl)amino][1,3]thiazolo[4,5-c]pyridazin-3-yl}-2H-indazole-7-carbonitrile], for which the IC50 lay in the range of 100 to 500 nM.

Consider `Cn1cc2cc(-c3ccc4nc(NC5CCNCC5)sc4c3)ccc2n1` [Compound 35, 6-(2-methyl-2H-indazol-5-yl)-N-(piperidin-4-yl)-1,3-benzothiazol-2-amine], for which the IC50 lay in the range of 100 to 500 nM.

In turn, `CN(c1nc2ccc(-c3ccc4nn(C)cc4c3)cc2s1)C1CCNCC1` [Compound 8, N-methyl-6-(2-methyl-2H-indazol-5-yl)-N-(piperidin-4-yl)-1,3-benzothiazol-2-amine] returned an IC50 of 100 to 500 nM.

With `Cc1cn2cc(-c3ccc4nc(N(C)C5CC(C)(C)NC(C)(C)C5)sc4n3)cc(C#N)c2n1` [Compound 178, 2-methyl-6-{2-[methyl(2,2,6,6-tetramethylpiperidin-4-yl)amino][1,3]thiazolo[5,4-b]pyridin-5-yl}imidazo[1,2-a]pyridine-8-carbonitrile], the IC50 was at most 100 nM.

For `Cc1cc(-c2cc3sc(C4CCNCC4)nc3cn2)cc2cn(C)nc12` [Compound 59, 6-(2,7-dimethyl-2H-indazol-5-yl)-2-(piperidin-4-yl)[1,3]thiazolo[4,5-c]pyridine], the IC50 fell in the range of 100 to 500 nM.

`Cc1cn2nc(-c3cc(F)c4nc(OC5CCNCC5)sc4c3)cc(C)c2n1` [Compound 306, 6-{4-fluoro-2-[(piperidin-4-yl)oxy]-1,3-benzothiazol-6-yl}-2,8-dimethylimidazo[1,2-b]pyridazine] returned an IC50 of at most 100 nM.

For the compound `Cc1cn2cc(-c3cc4sc(N(C)C5CC6CCCC(C5)N6C)nc4cn3)cc(F)c2n1` (centres unmarked) [Compound 271, 6-(8-fluoro-2-methylimidazo[1,2-a]pyridin-6-yl)-N-methyl-N-(9-methyl-9-azabicyclo[3.3.1]non-3-yl)[1,3]thiazolo[4,5-c]pyridin-2-amine], the IC50 is 100 to 500 nM.

Compound `CN(c1nc2ccc(-c3cc(C#N)c4nn(C)cc4c3)nc2s1)C1CC2CCC(C1)N2` (stereo not drawn) [Compound 278, 5-{2-[(3-exo)-8-azabicyclo[3.2.1]oct-3-yl(methyl)amino][1,3]thiazolo[5,4-b]pyridin-5-yl}-2-methyl-2H-indazole-7-carbonitrile] returned an IC50 of at most 100 nM.

In the case of `CN1CCC2(CCN(c3nc4nnc(-c5ccc(-c6cn[nH]c6)cc5O)cc4s3)C2)C1` (centres unmarked) [Compound 340, 2-[6-(7-methyl-2,7-diazaspiro[4.4]nonan-2-yl)[1,3]thiazolo[4.5-c]pyridazin-3-yl]-5-(1H-pyrazol-4-yl)phenol], the IC50 fell in the range of 1000 to 3000 nM.

Values taken from US12139499B2, “Heteroaryl compounds for treating Huntington's disease” (PTC THERAPEUTICS, INC., priority 2018, dated 2024).
